From patent US10870647B2, “Imidazopyridine derivative, method for preparing same, and pharmaceutical composition containing same as active ingredient for preventing or treating cancer” (DAEGU-GYEONGBUK MEDICAL INNOVATION FOUNDATION, priority 2016, dated 2020) come the findings set out here.

Read-outs that look alike come from different tables or passages of the source.

Assay in all cases: Kinase selectivity, scanMAX Kinase assay panel (DiscoverX), % control at 1 uM
Holding throughout (assay type): binding

The target in assay [1] is T1, scanMAX Kinase assay panel (Homo sapiens, UniProt P49840).
T1 construct: purchased DiscoverX
To be noted: GSK3A; 1 uM; read-out: Percent Control (%). The protocol:
(§1) The following experiment was performed to evaluate the inhibitory activity of the compound of the present invention on more enzymes.
(§2) Particularly, among the compounds of the present invention, the compounds of Example 1, Example 12 and Example 78 were selected and assigned to DiscoverX to measure the kinase selectivity. The experiment was performed by using scanMAX™ Kinase assay panel.
(§3) At this time, the concentration of the drug to be treated to the enzyme was adjusted to 1 uM in DMSO, and the control percentage (% control) was determined according to the following Equation 1. [Example Compound−Positive Control/Negative Control−Positive Control]×100 [Equation 1]
(§4) The enzyme selectivity of the compound of the present invention was judged to be active for the enzyme if the % control was <35 (i.e. less than 35%) for each enzyme.

Assay [2] deals with T2, scanMAX Kinase assay panel (Homo sapiens, UniProt P04629).
T2 construct: purchased DiscoverX
To be noted: TRKA; 1 uM; read-out: Percent Control (%). The protocol:
as §1, §2, §3, §4

Assay [3] deals with T3, scanMAX Kinase assay panel (Homo sapiens, UniProt Q04759).
T3 construct: purchased DiscoverX
To be noted: PRKCQ; 1 uM; read-out: Percent Control (%). As to the method: as §1, §2, §3, §4

The target in assay [4] is T4, scanMAX Kinase assay panel (Homo sapiens, UniProt P27448).
T4 construct: purchased DiscoverX
To be noted: MARK3; 1 uM; read-out: Percent Control (%). The protocol:
as §1, §2, §3, §4

Assay [5] concerns the target T5, scanMAX Kinase assay panel (Homo sapiens, UniProt O60331).
T5 construct: purchased DiscoverX
To be noted: PIP5K1C; 1 uM; read-out: Percent Control (%). The protocol:
as §1, §2, §3, §4

The target in assay [6] is T6, scanMAX Kinase assay panel (Homo sapiens, UniProt Q00537).
T6 construct: purchased DiscoverX
To be noted: PCTK2; 1 uM; read-out: Percent Control (%). The protocol:
as §1, §2, §3, §4

Assay [7] addresses T7, scanMAX Kinase assay panel (Homo sapiens, UniProt Q5VT25).
T7 construct: purchased DiscoverX
To be noted: MRCKA; 1 uM; read-out: Percent Control (%). As to the method: as §1, §2, §3, §4

The target in assay [8] is T8, scanMAX Kinase assay panel (Homo sapiens, UniProt P36897).
T8 construct: purchased DiscoverX
T8 sequence (P36897 34-503): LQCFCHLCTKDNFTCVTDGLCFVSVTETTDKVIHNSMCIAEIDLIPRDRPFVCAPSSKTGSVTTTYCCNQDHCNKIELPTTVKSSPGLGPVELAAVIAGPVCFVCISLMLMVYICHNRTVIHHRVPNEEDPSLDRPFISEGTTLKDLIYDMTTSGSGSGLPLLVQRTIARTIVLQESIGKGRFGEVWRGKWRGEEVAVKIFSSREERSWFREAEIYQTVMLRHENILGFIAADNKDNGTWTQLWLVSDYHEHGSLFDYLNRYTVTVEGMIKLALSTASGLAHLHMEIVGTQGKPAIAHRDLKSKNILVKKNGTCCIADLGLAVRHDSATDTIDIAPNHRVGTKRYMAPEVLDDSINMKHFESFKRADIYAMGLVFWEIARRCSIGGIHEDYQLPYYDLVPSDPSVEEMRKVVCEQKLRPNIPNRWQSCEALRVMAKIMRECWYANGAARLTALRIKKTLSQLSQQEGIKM
To be noted: TGFBR1; 1 uM; read-out: Percent Control (%). The protocol: as §1, §2, §3, §4

The target of assay [9] is T9, scanMAX Kinase assay panel (Homo sapiens, UniProt P21802).
T9 construct: purchased DiscoverX
To be noted: FGFR2; 1 uM; read-out: Percent Control (%). The protocol:
as §1, §2, §3, §4

The target of assay [10] is T10, scanMAX Kinase assay panel (Homo sapiens, UniProt Q9P289).
T10 construct: purchased DiscoverX
To be noted: MST4; 1 uM; read-out: Percent Control (%). As to the method: as §1, §2, §3, §4

In assay [11] the target is T11, scanMAX Kinase assay panel (Homo sapiens, UniProt P21860).
T11 construct: purchased DiscoverX
To be noted: ERBB3; 1 uM; read-out: Percent Control (%). The protocol:
as §1, §2, §3, §4

Assay [12] has as its target T12, scanMAX Kinase assay panel (Homo sapiens, UniProt Q8NEV4).
T12 construct: purchased DiscoverX
To be noted: MYO3A; 1 uM; read-out: Percent Control (%). The protocol:
as §1, §2, §3, §4

In assay [13] the target is T13, scanMAX Kinase assay panel (Homo sapiens, UniProt Q15418).
T13 construct: purchased DiscoverX
To be noted: 1 uM, read-out: Percent Control (%). The protocol: as §1, §2, §3, §4

Assay [14] addresses T14, scanMAX Kinase assay panel (Homo sapiens, UniProt P22694).
T14 construct: purchased DiscoverX
To be noted: PKAC-beta; 1 uM; read-out: Percent Control (%). As to the method:
as §1, §2, §3, §4

T4 sequence (P27448 whole entry): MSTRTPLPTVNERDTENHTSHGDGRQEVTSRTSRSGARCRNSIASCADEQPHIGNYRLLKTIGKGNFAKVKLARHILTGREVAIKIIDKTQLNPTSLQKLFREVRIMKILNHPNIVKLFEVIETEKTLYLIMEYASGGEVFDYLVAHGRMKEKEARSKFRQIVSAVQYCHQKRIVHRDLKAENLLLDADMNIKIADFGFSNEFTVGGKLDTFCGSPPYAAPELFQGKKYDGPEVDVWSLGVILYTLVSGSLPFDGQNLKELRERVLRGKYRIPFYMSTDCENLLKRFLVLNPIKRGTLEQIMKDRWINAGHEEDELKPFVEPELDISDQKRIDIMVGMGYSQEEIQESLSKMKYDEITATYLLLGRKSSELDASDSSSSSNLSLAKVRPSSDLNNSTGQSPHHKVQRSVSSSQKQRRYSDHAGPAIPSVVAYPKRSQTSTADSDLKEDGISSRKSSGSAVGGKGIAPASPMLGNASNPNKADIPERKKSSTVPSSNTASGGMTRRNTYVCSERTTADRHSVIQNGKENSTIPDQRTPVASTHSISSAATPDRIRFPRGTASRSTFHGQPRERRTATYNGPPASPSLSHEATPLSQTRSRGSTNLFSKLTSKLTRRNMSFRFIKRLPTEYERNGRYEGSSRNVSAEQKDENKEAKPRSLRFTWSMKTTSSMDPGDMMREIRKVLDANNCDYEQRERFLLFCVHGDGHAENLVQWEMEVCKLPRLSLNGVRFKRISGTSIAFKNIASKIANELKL
T11 sequence (P21860 20-1342): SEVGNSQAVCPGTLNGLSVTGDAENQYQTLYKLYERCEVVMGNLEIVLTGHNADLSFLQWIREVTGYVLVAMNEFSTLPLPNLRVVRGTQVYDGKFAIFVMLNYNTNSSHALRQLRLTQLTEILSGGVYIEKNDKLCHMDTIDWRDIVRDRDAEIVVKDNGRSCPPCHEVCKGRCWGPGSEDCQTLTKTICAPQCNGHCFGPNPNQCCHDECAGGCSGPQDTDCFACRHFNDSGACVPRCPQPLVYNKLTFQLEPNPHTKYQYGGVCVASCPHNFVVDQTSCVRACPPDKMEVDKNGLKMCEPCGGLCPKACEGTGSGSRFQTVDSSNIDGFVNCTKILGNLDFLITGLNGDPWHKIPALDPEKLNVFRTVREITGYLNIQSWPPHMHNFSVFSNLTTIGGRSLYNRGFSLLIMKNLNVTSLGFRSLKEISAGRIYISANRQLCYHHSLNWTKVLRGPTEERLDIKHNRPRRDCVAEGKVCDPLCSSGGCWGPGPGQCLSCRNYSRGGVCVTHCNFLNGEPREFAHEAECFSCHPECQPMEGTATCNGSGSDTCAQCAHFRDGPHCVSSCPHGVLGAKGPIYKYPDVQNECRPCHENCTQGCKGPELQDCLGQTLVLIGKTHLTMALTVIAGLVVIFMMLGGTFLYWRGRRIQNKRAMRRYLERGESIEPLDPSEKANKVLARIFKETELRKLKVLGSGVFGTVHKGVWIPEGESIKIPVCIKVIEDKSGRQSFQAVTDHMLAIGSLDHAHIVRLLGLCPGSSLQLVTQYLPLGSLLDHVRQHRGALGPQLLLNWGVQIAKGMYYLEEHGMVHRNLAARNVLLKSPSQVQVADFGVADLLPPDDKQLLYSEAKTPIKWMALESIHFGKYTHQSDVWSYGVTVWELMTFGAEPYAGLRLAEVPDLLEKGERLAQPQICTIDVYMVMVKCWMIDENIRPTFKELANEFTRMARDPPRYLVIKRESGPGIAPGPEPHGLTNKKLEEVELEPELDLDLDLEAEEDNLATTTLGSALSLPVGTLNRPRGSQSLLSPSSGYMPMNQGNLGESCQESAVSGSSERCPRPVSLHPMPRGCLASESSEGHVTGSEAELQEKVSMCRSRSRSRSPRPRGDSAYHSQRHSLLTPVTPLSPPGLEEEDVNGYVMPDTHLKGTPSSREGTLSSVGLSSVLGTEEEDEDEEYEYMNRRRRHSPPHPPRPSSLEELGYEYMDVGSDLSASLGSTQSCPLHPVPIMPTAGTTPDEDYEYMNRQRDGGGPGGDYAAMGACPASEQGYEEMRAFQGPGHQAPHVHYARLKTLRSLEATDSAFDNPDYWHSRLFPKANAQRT
T9 sequence (P21802 22-821): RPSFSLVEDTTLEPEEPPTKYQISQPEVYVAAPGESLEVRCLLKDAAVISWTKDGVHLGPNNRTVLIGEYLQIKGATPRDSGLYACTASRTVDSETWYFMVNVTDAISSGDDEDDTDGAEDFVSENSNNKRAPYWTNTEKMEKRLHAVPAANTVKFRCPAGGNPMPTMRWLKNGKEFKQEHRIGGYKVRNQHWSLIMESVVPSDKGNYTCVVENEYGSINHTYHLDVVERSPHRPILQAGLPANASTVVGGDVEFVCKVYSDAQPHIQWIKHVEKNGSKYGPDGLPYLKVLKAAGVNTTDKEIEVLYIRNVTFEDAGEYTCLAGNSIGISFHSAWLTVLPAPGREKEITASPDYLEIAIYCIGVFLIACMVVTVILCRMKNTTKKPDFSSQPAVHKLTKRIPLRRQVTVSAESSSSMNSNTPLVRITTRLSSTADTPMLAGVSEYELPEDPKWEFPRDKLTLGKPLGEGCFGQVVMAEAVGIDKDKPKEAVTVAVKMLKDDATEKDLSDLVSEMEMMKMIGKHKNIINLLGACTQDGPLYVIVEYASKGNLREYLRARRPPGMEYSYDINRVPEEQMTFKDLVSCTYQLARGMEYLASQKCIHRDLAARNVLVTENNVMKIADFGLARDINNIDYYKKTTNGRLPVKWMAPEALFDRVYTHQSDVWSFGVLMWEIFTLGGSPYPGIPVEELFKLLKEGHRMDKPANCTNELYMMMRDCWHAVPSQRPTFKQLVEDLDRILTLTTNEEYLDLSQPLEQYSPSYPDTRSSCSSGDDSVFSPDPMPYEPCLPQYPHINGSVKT
T12 sequence (Q8NEV4 whole entry): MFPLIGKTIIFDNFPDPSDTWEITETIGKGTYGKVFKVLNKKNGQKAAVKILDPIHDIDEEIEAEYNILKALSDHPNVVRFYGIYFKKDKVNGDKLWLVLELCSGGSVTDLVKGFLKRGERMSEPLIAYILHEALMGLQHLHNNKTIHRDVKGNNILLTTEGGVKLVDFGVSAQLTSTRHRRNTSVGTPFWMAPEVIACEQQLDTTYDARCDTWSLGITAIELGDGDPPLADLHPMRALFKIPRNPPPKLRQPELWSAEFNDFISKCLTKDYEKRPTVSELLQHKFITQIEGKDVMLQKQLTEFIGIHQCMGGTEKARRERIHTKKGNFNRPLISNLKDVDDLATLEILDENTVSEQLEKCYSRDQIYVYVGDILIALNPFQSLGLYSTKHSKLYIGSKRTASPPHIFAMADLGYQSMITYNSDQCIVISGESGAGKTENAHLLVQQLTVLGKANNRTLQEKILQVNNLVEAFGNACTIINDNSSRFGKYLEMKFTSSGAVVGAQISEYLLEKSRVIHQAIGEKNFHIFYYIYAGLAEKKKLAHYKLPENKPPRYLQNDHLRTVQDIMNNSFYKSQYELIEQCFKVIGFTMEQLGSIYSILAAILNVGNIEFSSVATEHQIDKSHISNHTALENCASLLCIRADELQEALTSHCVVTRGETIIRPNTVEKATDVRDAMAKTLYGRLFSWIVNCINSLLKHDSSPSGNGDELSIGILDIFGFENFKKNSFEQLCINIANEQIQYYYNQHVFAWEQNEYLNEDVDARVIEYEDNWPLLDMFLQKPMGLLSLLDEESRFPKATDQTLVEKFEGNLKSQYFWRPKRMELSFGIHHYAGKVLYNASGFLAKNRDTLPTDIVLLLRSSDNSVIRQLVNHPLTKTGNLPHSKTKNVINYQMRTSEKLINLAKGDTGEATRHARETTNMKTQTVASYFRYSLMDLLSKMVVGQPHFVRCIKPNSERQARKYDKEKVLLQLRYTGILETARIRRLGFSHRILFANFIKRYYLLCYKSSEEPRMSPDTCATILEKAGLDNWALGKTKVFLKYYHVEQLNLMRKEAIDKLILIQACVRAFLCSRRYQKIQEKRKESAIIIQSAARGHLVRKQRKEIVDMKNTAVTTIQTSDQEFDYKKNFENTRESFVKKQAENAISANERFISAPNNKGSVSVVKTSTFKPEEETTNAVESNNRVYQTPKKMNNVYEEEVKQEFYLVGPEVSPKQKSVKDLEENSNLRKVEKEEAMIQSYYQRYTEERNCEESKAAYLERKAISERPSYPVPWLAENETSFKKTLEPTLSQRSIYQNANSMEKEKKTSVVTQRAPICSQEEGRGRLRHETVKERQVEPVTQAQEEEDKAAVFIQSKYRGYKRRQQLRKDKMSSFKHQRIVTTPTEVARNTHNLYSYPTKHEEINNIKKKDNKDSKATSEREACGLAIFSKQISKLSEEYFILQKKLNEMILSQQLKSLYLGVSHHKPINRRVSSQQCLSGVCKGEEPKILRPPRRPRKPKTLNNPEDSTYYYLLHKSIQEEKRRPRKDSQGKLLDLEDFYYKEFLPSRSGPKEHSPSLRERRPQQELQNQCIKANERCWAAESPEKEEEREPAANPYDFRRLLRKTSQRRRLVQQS
T6 sequence (Q00537 whole entry): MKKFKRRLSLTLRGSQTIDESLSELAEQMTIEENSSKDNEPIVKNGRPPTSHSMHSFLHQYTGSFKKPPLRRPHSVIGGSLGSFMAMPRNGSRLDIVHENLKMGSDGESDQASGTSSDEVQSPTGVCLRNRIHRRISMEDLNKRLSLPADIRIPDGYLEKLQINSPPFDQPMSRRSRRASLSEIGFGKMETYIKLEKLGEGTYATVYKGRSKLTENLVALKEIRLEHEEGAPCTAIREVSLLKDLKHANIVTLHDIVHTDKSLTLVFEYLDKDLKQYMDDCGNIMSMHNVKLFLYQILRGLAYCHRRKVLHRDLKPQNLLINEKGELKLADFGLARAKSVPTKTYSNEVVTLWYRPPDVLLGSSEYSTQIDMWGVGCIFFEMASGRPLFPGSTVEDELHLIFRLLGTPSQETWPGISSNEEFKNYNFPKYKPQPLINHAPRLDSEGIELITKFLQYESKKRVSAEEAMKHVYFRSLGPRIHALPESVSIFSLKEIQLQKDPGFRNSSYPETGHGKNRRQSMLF

For `Cc1ccc(C(=O)Nc2ccc(CN3CCN(C)CC3)c(C(F)(F)F)c2)cc1C#Cc1cnc2c(Nc3cnn(C)c3)cccn12` [Example 1, 4-methyl-3-((8-((1-methyl-1H-pyrazol-4-yl)amino)imidazo[1,2-a]pyridin-3-yl)ethynyl)-N-(4-((4-methylpiperazin-1-yl)methyl)-3-(trifluoromethyl)phenyl)benzamide], the remaining binding at 1 µM was determined as 76% in assay [1]; 0% in assay [2]; 53% in assay [3]; 53% in assay [4]; 88% in [5]; 19% in assay [6]. Besides, the remaining binding at 1 µM stood at 96% in [7]; 85% in assay [8]; 2% in assay [9]; 55% in assay [10]; 86% in assay [11]; 14% in [12]. For the same compound, the remaining binding at 1 µM was determined as 60% in assay [13] (RSK1 (Kin.Dom.1-N-terminal)), 64% in assay [13] (RSK1 (Kin.Dom.2-C-terminal)) and 34% in assay [14].

In the case of `Cc1cn(-c2cc(NC(=O)c3ccc(C)c(C#Cc4cnc5c(Nc6cnn(C)c6)cccn45)c3)cc(C(F)(F)F)c2)cn1` [Example 12, 4-methyl-N-(3-(4-methyl-1H-imidazol-1-yl)-5-(trifluoromethyl)phenyl)-3-((8-((1-methyl-1H-pyrazol-4-yl)amino)imidazo[1,2-a]pyridin-3-yl)ethynyl)benzamide], the remaining binding at 1 µM was 100% in assay [1]; 1% in assay [2]; 87% in [3]; 94% in assay [4]; 71% in assay [5]; 98% in assay [6]. Further, the remaining binding at 1 µM in assay [7] worked out at 91%; in assay [8] it was 85%; in assay [9], 11%; in assay [10], 91%; in assay [11], 98%; in [12], 88%. Moreover, the remaining binding at 1 µM amounted to 79% in assay [13] (RSK1 (Kin.Dom.1-N-terminal)), 69% in [13] (RSK1 (Kin.Dom.2-C-terminal)) and 87% in assay [14].

As for `Cc1ccc(NC(=O)C2(C(=O)Nc3ccc(F)cc3)CC2)cc1C#Cc1cnc2c(Nc3cnn(C(C)C)c3)cccn12` [Example 78], the remaining binding at 1 µM in [1] worked out at 100%; in assay [2] it was 100%; in assay [3], 85%; in assay [4], 100%; in [5] it was 92%; in assay [6] it was 100%. The remaining binding at 1 µM stood at 100% in assay [7]; 100% in [8]; 100% in [9]; 100% in assay [10]; 99% in assay [11]; 100% in [12]. The remaining binding at 1 µM in [13] (RSK1 (Kin.Dom.1-N-terminal)) is 100%; in assay [13] (RSK1 (Kin.Dom.2-C-terminal)), 95%; in [14], 98%.
